According to ChEMBL document CHEMBL1138960 (Bioorg Med Chem Lett, 2006):
Converted amounts (≈) assume the structure as drawn. The source made the active and inactive calls. The calls are words filed in the database; no cut-off is given here.

What was measured:
Rattus norvegicus [1] = test: AUC in rat after administration as its prodrug N-(4-(5-amino-1-(2,6-difluorobenzoyl)-1H-1,2,4-triazol-3-ylamino)phenylsulfonyl)-3-(4-methylpiperazin-1-yl)propanamide at 3 mg/kg, iv; assay type: ADME, organism-based, Plasma; design: dose 3 mg/kg, route intravenous; conditions: in vivo
Rattus norvegicus [2] = test: AUC in rat after administration as its prodrug 2-amino-N-(4-(5-amino-1-(2,6-difluorobenzoyl)-1H-1,2,4-triazol-3-ylamino)phenylsulfonyl)acetamide at 3 mg/kg, iv; assay type: ADME, organism-based, Plasma; design: dose 3 mg/kg, route intravenous; conditions: in vivo
Rattus norvegicus [3] = test: AUC in rat after administration as its prodrug N-(4-(5-amino-1-(2,6-difluorobenzoyl)-1H-1,2,4-triazol-3-ylamino)phenylsulfonyl)-2-(2-methoxyethoxy)acetamide at 3 mg/kg, iv; assay type: ADME, organism-based, Plasma; design: dose 3 mg/kg, route intravenous; conditions: in vivo
Rattus norvegicus [4] = test: AUC in rat after administration as its prodrug ethyl 4-(4-(5-amino-1-(2,6-difluorobenzoyl)-1H-1,2,4-triazol-3-ylamino)phenylsulfonamido)-4-oxobutanoate at 3 mg/kg, iv; assay type: ADME, organism-based, Plasma; design: dose 3 mg/kg, route intravenous; conditions: in vivo
Rattus norvegicus [5] = test: AUC in rat after administration as its prodrug (R)-2-amino-N-(4-(5-amino-1-(2,6-difluorobenzoyl)-1H-1,2,4-triazol-3-ylamino)phenylsulfonyl)-3-hydroxypropanamide at 3 mg/kg, iv; assay type: ADME, organism-based, Plasma; design: dose 3 mg/kg, route intravenous; conditions: in vivo
HeLa = test: Antiproliferative activity against human HeLa cells; assay type: functional, cell-based
HCT-116 = test: Antiproliferative activity against human HCT116 cells; assay type: functional, cell-based
A-375 [6] = test: Antiproliferative activity against human A375 cells; assay type: functional, cell-based
[7] = Solubility at pH 2.0; assay type: physicochemical; conditions: buffer
[8] = Oral bioavailability in nude mice; assay type: ADME, organism-based; conditions: mouse, in vivo
[9] = Oral bioavailability in rat; assay type: ADME, organism-based; conditions: in vivo
A-375 [10] = test: Antitumor activity in human melanoma A375 cell line using tumor xenograft model at 100 mg/kg, ip; assay type: functional; conditions: A-375, ip, route intraperitoneal, read-out: TGI
[11] = Tmax in rat; assay type: ADME, organism-based; conditions: in vivo
[12] = Half life in rat; assay type: ADME, organism-based; conditions: in vivo
Rattus norvegicus [13] = test: AUC in rat after administration as its prodrug N-(4-(5-amino-1-(2,6-difluorobenzoyl)-1H-1,2,4-triazol-3-ylamino)phenylsulfonyl)-3-morpholinopropanamide at 3 mg/kg, iv; assay type: ADME, organism-based, Plasma; design: dose 3 mg/kg, route intravenous; conditions: in vivo
Rattus norvegicus [14] = test: AUC in rat after administration as its prodrug 4-(4-(5-amino-1-(2,6-difluorobenzoyl)-1H-1,2,4-triazol-3-ylamino)phenylsulfonamido)-4-oxobutanoic acid at 3 mg/kg, iv; assay type: ADME, organism-based, Plasma; design: dose 3 mg/kg, route intravenous; conditions: in vivo
Rattus norvegicus [15] = test: Conversion of prodrug to parent in rat at 3 mg/kg, iv [100*AUC (JNJ-7706621) / AUC (prodrug)]; assay type: ADME, organism-based; design: dose 3 mg/kg, route intravenous; conditions: in vivo
[16] = target: Cyclin-dependent kinase 2 (Homo sapiens, UniProt P24941); test: Inhibition of CDK2
[17] = Solubility at pH 7.4; assay type: physicochemical; conditions: buffer
[18] = AUC in rat at 3 mg/kg, iv; assay type: ADME, organism-based; design: dose 3 mg/kg, route intravenous; conditions: plasma
A-375 [19] = test: Antitumor activity in human melanoma A375 cell line using tumor xenograft model after 28 days at 100 mg/kg, ip; assay type: functional, organism-based; design: dose 100 mg/kg
[20] = target: Cyclin-dependent kinase 1 (Homo sapiens, UniProt P06493); test: Inhibition of CDK1
Chain of Cyclin-dependent kinase 1 (P06493 whole entry): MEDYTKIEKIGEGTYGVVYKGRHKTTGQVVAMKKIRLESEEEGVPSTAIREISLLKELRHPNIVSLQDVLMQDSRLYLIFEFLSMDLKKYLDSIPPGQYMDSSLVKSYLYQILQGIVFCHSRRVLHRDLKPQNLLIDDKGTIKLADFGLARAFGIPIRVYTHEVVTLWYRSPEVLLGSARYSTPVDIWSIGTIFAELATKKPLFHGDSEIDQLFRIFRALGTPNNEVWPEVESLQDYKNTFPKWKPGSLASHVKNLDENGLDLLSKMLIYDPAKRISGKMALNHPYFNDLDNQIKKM

Row | SMILES | IC50 (HeLa) [µM] | IC50 (HCT-116) [µM] | IC50 (A-375 [6]) [µM] | solubility [7] [µg/mL] | Tmax [11] [min] | half-life [12] [min] | Activity (Rattus norvegicus [15]) [%] | IC50 [16] [µM] | solubility [17] [µg/mL] | AUC [18] [µM·h] | further results
1 | Nc1nc(Nc2ccc(S(N)(=O)=O)cc2)nn1C(=O)c1c(F)cccc1F [JNJ-7706621] | 0.284 | 0.254 | 0.447 | 6 (≈ 15.2 µM) | 4.8 | 9.6 |  |  |  |  | AUC (Rattus norvegicus [1]): 0.93 µM·h; AUC (Rattus norvegicus [2]): 3.67 µM·h; AUC (Rattus norvegicus [3]): 7.62 µM·h; AUC (Rattus norvegicus [4]): 29.1 µM·h; AUC (Rattus norvegicus [5]): 0.63 µM·h; bioavailability [8]: 2%; bioavailability [9]: 8%; inhibition in vivo at 100 mg/kg (A-375 [10]): 95%; AUC (Rattus norvegicus [13]): 1.4 µM·h; AUC (Rattus norvegicus [14]): 18 µM·h
2 | CCOC(=O)CCC(=O)NS(=O)(=O)c1ccc(Nc2nc(N)n(C(=O)c3c(F)cccc3F)n2)cc1 | 60.2 | 40.1 | > 10 | 0.2 (≈ 0.383 µM) | 4.8 | 9.6 | 40 | 0.062 | 210 (≈ 402 µM) | 72.2 | 
3 | Nc1nc(Nc2ccc(S(=O)(=O)NC(=O)CCC(=O)O)cc2)nn1C(=O)c1c(F)cccc1F | 31.9 | > 100 | 20.2 | 0.7 (≈ 1.42 µM) | 4.8 | 9.6 | 38 | 0.071 | > 1000 | 47 | Activity (A-375 [19]): inactive
4 | Nc1nc(Nc2ccc(S(=O)(=O)NC(=O)CCN3CCOCC3)cc2)nn1C(=O)c1c(F)cccc1F | 20.9 | 50.8 | > 100 | 14 (≈ 26.1 µM) | 4.8 | 9.6 | 7 | 0.118 | 4.7 (≈ 8.78 µM) | 20.5 | 
5 | CN1CCN(CCC(=O)NS(=O)(=O)c2ccc(Nc3nc(N)n(C(=O)c4c(F)cccc4F)n3)cc2)CC1 | > 100 | > 10 | > 100 | > 1000 | 4.8 | 9.6 | 4 | 0.266 | 820 (≈ 1490 µM) | 23.2 | 
6 | COCCOCC(=O)NS(=O)(=O)c1ccc(Nc2nc(N)n(C(=O)c3c(F)cccc3F)n2)cc1 | > 10 | > 10 | > 100 | 5.4 (≈ 10.6 µM) | 4.8 | 9.6 | 18 | 0.247 | > 1000 | 42.9 | 
7 | NCC(=O)NS(=O)(=O)c1ccc(Nc2nc(N)n(C(=O)c3c(F)cccc3F)n2)cc1 | 14.9 | 36.9 | 9.45 | 130 (≈ 288 µM) | 4.8 | 9.6 | 31 |  | 200 (≈ 443 µM) | 11.8 | 
8 | Nc1nc(Nc2ccc(S(=O)(=O)NC(=O)[C@H](N)CO)cc2)nn1C(=O)c1c(F)cccc1F | 4.02 | 71.2 | > 10 | 440 (≈ 914 µM) | 4.8 | 9.6 | 8 | 0.14 | > 1000 | 8.15 | IC50 [20]: 1.41 µM
